{"source": "PubChem BioAssay (NCI)", "experiment_in_all_cases": "NCI anticancer screen, dose series, 48 h", "key": {"[1]": {"system": "OVCAR-4 ovarian"}, "[2]": {"system": "ACHN renal"}, "[3]": {"system": "HT29 colon"}, "[4]": {"system": "T-47D breast"}, "[5]": {"system": "SNB-19 CNS"}, "[6]": {"system": "MCF7 breast"}, "[7]": {"system": "KM12 colon"}, "[8]": {"system": "SF-539 CNS"}, "[9]": {"system": "SF-268 CNS"}, "[10]": {"system": "K-562 leukemia"}, "[11]": {"system": "BT-549 breast"}, "[12]": {"system": "NCI-H23 lung"}, "[13]": {"system": "OVCAR-8 ovarian"}, "[14]": {"system": "SK-OV-3 ovarian"}, "[15]": {"system": "NCI-H522 lung"}, "[16]": {"system": "MDA-MB-231 breast"}, "[17]": {"system": "MDA-N"}, "[18]": {"system": "NCI-H226 lung"}, "[19]": {"system": "UO-31 renal"}, "[20]": {"system": "OVCAR-3 ovarian"}, "[21]": {"system": "SF-295 CNS"}, "[22]": {"system": "OVCAR-5 ovarian"}, "[23]": {"system": "SNB-75 CNS"}, "[24]": {"system": "UACC-62 melanoma"}, "[25]": {"system": "U251 CNS"}, "[26]": {"system": "MOLT-4 leukemia"}, "[27]": {"system": "SK-MEL-2 melanoma"}, "[28]": {"system": "HCT-116 colon"}, "[29]": {"system": "HL-60(TB) leukemia"}, "[30]": {"system": "UACC-257 melanoma"}, "[31]": {"system": "HCT-15 colon"}, "[32]": {"system": "LOX IMVI melanoma"}, "[33]": {"system": "HOP-92 NSCLC"}, "[34]": {"system": "M14 melanoma"}, "[35]": {"system": "NCI-H460 lung"}, "[36]": {"system": "TK-10 renal"}, "[37]": {"system": "PC-3 prostate"}, "[38]": {"system": "SN12C renal"}, "[39]": {"system": "MDA-MB-435"}, "[40]": {"system": "EKVX NSCLC"}, "[41]": {"system": "DU-145 prostate"}, "[42]": {"system": "MALME-3M melanoma"}, "[43]": {"system": "SW-620 colon"}, "[44]": {"system": "A549 NSCLC"}, "[45]": {"system": "NCI/ADR-RES ovarian"}, "[46]": {"system": "HS 578T breast"}, "[47]": {"system": "CCRF-CEM leukemia"}, "[48]": {"system": "SR leukemia"}, "[49]": {"system": "786-0 renal"}, "[50]": {"system": "COLO 205 colon"}, "[51]": {"system": "RXF 393 renal"}, "[52]": {"system": "A498 renal"}, "[53]": {"system": "SK-MEL-5 melanoma"}, "[54]": {"system": "RPMI-8226 leukemia"}, "[55]": {"system": "SK-MEL-28 melanoma"}, "[56]": {"system": "IGROV1 ovarian"}, "[57]": {"system": "HOP-62 NSCLC"}, "[58]": {"system": "CAKI-1 renal"}, "[59]": {"system": "HCC-2998 colon"}}, "note": "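Protocol summary: plate cells (96-well), add compound at 5 concentrations, incubate 48 h, interpolate endpoints linearly. TGI: total growth inhibition.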", "data": [{"smiles": "O=C1CCC2(c3ccccc3)Nc3ccncc3N12", "note": "(stereo unspecified)", "values": [{"measurement": "TGI", "setting": "[1]", "value": "> 10", "unit": "µM"}, {"measurement": "TGI", "setting": "[2]", "value": "> 10", "unit": "µM"}, {"measurement": "TGI", "setting": "[3]", "value": "> 10", "unit": "µM"}, {"measurement": "TGI", "setting": "[4]", "value": "> 10", "unit": "µM"}, {"measurement": "TGI", "setting": "[5]", "value": "> 10", "unit": "µM"}, {"measurement": "TGI", "setting": "[6]", "value": "> 10", "unit": "µM"}, {"measurement": "TGI", "setting": "[7]", "value": "> 10", "unit": "µM"}, {"measurement": "TGI", "setting": "[8]", "value": "> 10", "unit": "µM"}, {"measurement": "TGI", "setting": "[9]", "value": "> 10", "unit": "µM"}, {"measurement": "TGI", "setting": "[10]", "value": "> 10", "unit": "µM"}, {"measurement": "TGI", "setting": "[11]", "value": "> 10", "unit": "µM"}, {"measurement": "TGI", "setting": "[12]", "value": "> 10", "unit": "µM"}, {"measurement": "TGI", "setting": "[13]", "value": "> 10", "unit": "µM"}, {"measurement": "TGI", "setting": "[14]", "value": "> 10", "unit": "µM"}, {"measurement": "TGI", "setting": "[15]", "value": "> 10", "unit": "µM"}, {"measurement": "TGI", "setting": "[16]", "value": "> 10", "unit": "µM"}, {"measurement": "TGI", "setting": "[17]", "value": "> 10", "unit": "µM"}, {"measurement": "TGI", "setting": "[18]", "value": "> 10", "unit": "µM"}, {"measurement": "TGI", "setting": "[19]", "value": "> 10", "unit": "µM"}, {"measurement": "TGI", "setting": "[20]", "value": "> 10", "unit": "µM"}, {"measurement": "TGI", "setting": "[21]", "value": "> 10", "unit": "µM"}, {"measurement": "TGI", "setting": "[22]", "value": "> 10", "unit": "µM"}, {"measurement": "TGI", "setting": "[23]", "value": "> 10", "unit": "µM"}, {"measurement": "TGI", "setting": "[24]", "value": "> 10", "unit": "µM"}, {"measurement": "TGI", "setting": "[25]", "value": "> 10", "unit": "µM"}, {"measurement": "TGI", "setting": "[26]", "value": "> 10", "unit": "µM"}, {"measurement": "TGI", "setting": "[27]", "value": "> 10", "unit": "µM"}, {"measurement": "TGI", "setting": "[28]", "value": "> 10", "unit": "µM"}, {"measurement": "TGI", "setting": "[29]", "value": "> 10", "unit": "µM"}, {"measurement": "TGI", "setting": "[30]", "value": "> 10", "unit": "µM"}, {"measurement": "TGI", "setting": "[31]", "value": "> 10", "unit": "µM"}, {"measurement": "TGI", "setting": "[32]", "value": "> 10", "unit": "µM"}, {"measurement": "TGI", "setting": "[33]", "value": "> 10", "unit": "µM"}, {"measurement": "TGI", "setting": "[34]", "value": "> 10", "unit": "µM"}, {"measurement": "TGI", "setting": "[35]", "value": "> 10", "unit": "µM"}, {"measurement": "TGI", "setting": "[36]", "value": "> 10", "unit": "µM"}, {"measurement": "TGI", "setting": "[37]", "value": "> 10", "unit": "µM"}, {"measurement": "TGI", "setting": "[38]", "value": "> 10", "unit": "µM"}, {"measurement": "TGI", "setting": "[39]", "value": "> 10", "unit": "µM"}, {"measurement": "TGI", "setting": "[40]", "value": "> 10", "unit": "µM"}, {"measurement": "TGI", "setting": "[41]", "value": "> 10", "unit": "µM"}, {"measurement": "TGI", "setting": "[42]", "value": "> 10", "unit": "µM"}, {"measurement": "TGI", "setting": "[43]", "value": "> 10", "unit": "µM"}, {"measurement": "TGI", "setting": "[44]", "value": "> 10", "unit": "µM"}, {"measurement": "TGI", "setting": "[45]", "value": "> 10", "unit": "µM"}, {"measurement": "TGI", "setting": "[46]", "value": "> 10", "unit": "µM"}, {"measurement": "TGI", "setting": "[47]", "value": "> 10", "unit": "µM"}, {"measurement": "TGI", "setting": "[48]", "value": "> 10", "unit": "µM"}, {"measurement": "TGI", "setting": "[49]", "value": "> 10", "unit": "µM"}]}, {"smiles": "C[C@]12CC[C@H](OC(=O)Cc3ccc(N(CCCl)CCCl)cc3)CC1=CC[C@@H]1[C@@H]2CC[C@]2(C)C(=O)CC[C@@H]12", "values": [{"measurement": "TGI", "setting": "[2]", "value": "> 100", "unit": "µM"}, {"measurement": "TGI", "setting": "[3]", "value": "> 100", "unit": "µM"}, {"measurement": "TGI", "setting": "[50]", "value": "> 100", "unit": "µM"}, {"measurement": "TGI", "setting": "[4]", "value": "> 100", "unit": "µM"}, {"measurement": "TGI", "setting": "[5]", "value": "> 100", "unit": "µM"}, {"measurement": "TGI", "setting": "[6]", "value": "> 100", "unit": "µM"}, {"measurement": "TGI", "setting": "[7]", "value": "> 100", "unit": "µM"}, {"measurement": "TGI", "setting": "[8]", "value": "> 100", "unit": "µM"}, {"measurement": "TGI", "setting": "[9]", "value": "> 100", "unit": "µM"}, {"measurement": "TGI", "setting": "[51]", "value": "> 100", "unit": "µM"}, {"measurement": "TGI", "setting": "[10]", "value": "> 100", "unit": "µM"}, {"measurement": "TGI", "setting": "[11]", "value": "> 100", "unit": "µM"}, {"measurement": "TGI", "setting": "[12]", "value": "> 100", "unit": "µM"}, {"measurement": "TGI", "setting": "[13]", "value": "> 100", "unit": "µM"}, {"measurement": "TGI", "setting": "[15]", "value": "> 100", "unit": "µM"}, {"measurement": "TGI", "setting": "[16]", "value": "> 100", "unit": "µM"}, {"measurement": "TGI", "setting": "[17]", "value": "> 100", "unit": "µM"}, {"measurement": "TGI", "setting": "[52]", "value": "> 100", "unit": "µM"}, {"measurement": "TGI", "setting": "[18]", "value": "> 100", "unit": "µM"}, {"measurement": "TGI", "setting": "[53]", "value": "> 100", "unit": "µM"}, {"measurement": "TGI", "setting": "[19]", "value": "> 100", "unit": "µM"}, {"measurement": "TGI", "setting": "[20]", "value": "> 100", "unit": "µM"}, {"measurement": "TGI", "setting": "[54]", "value": "> 100", "unit": "µM"}, {"measurement": "TGI", "setting": "[22]", "value": "> 100", "unit": "µM"}, {"measurement": "TGI", "setting": "[55]", "value": "> 100", "unit": "µM"}, {"measurement": "TGI", "setting": "[23]", "value": "> 100", "unit": "µM"}, {"measurement": "TGI", "setting": "[56]", "value": "> 100", "unit": "µM"}, {"measurement": "TGI", "setting": "[25]", "value": "> 100", "unit": "µM"}, {"measurement": "TGI", "setting": "[26]", "value": "> 100", "unit": "µM"}, {"measurement": "TGI", "setting": "[27]", "value": "> 100", "unit": "µM"}, {"measurement": "TGI", "setting": "[29]", "value": "> 100", "unit": "µM"}, {"measurement": "TGI", "setting": "[30]", "value": "> 100", "unit": "µM"}, {"measurement": "TGI", "setting": "[57]", "value": "> 100", "unit": "µM"}, {"measurement": "TGI", "setting": "[58]", "value": "> 100", "unit": "µM"}, {"measurement": "TGI", "setting": "[31]", "value": "> 100", "unit": "µM"}, {"measurement": "TGI", "setting": "[32]", "value": "> 100", "unit": "µM"}, {"measurement": "TGI", "setting": "[33]", "value": "> 100", "unit": "µM"}, {"measurement": "TGI", "setting": "[34]", "value": "> 100", "unit": "µM"}, {"measurement": "TGI", "setting": "[59]", "value": "> 100", "unit": "µM"}, {"measurement": "TGI", "setting": "[35]", "value": "> 100", "unit": "µM"}, {"measurement": "TGI", "setting": "[36]", "value": "> 100", "unit": "µM"}, {"measurement": "TGI", "setting": "[37]", "value": "> 100", "unit": "µM"}, {"measurement": "TGI", "setting": "[38]", "value": "> 100", "unit": "µM"}, {"measurement": "TGI", "setting": "[39]", "value": "> 100", "unit": "µM"}, {"measurement": "TGI", "setting": "[40]", "value": "> 100", "unit": "µM"}, {"measurement": "TGI", "setting": "[41]", "value": "> 100", "unit": "µM"}, {"measurement": "TGI", "setting": "[42]", "value": "> 100", "unit": "µM"}, {"measurement": "TGI", "setting": "[43]", "value": "> 100", "unit": "µM"}, {"measurement": "TGI", "setting": "[44]", "value": "> 100", "unit": "µM"}, {"measurement": "TGI", "setting": "[45]", "value": "> 100", "unit": "µM"}, {"measurement": "TGI", "setting": "[46]", "value": "> 100", "unit": "µM"}, {"measurement": "TGI", "setting": "[48]", "value": "> 100", "unit": "µM"}]}]}
